Common to all, as to assay: Post-emergence herbicidal activity test (stem and leaf spray, pot culture)
Holding throughout (format): in vivo
Holding throughout (settings): 3 weeks after spraying

In assay [1] the test system is Echinochloa crusgalli. The procedure, abridged: (§1)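 Seeds soaked 6 h at 25 °C, germinated at 28 °C, sown in loam pots and thinned to 10 plants/pot. At 2–3 leaves, plants received a single spray-tower application of 10, 5 or 2.5 g/mu. Fresh-weight control was graded 0–5 after 3 weeks.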
Assay [2] concerns Setaria viridis. The procedure, abridged:
as §1

For assay [3], the system named is Portulaca oleracea. The procedure, abridged:
as §1

Assay [4] relates to Amaranthus retroflexus. In outline:
as §1

In assay [5] the test system is Abutilon theophrasti. The procedure, abridged: as §1
Assay [6] has as its system Trifoliumre pensL. The procedure, abridged:
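Pot-grown weeds in loam (pH 7), greenhouse at 20–30 °C, sprayed once post-emergence at the 2–3-leaf stage. Compound in acetone with Tween 80 plus methyl oleate oil (1.5 L/ha), applied at 10, 5 and 2.5 g/mu by spray tower. Effect scored 3 weeks after spraying, averaged over three repeats.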

With `O=C(CCl)Nc1cc(N2C(=O)C3=C(CCCC3)C2=O)c(F)cc1Cl` [Compound D2, 2-chloro-N-(2-chloro-5-(1,3-dioxo-1,3,4,5,6,7-hexahydro-2H-isoindole-2-yl)-4-fluorophenyl)acetamide], in assay [1] (dosage 10 g/mu), the “Post-emergence herbicidal activity, E. crusgalli (grade)” value was 3 (Grade 3: the growth control rate is greater than or equal to 40% and less than 60%). For the same compound, the “Post-emergence herbicidal activity, S. viridis (grade)” value in assay [2] (dosage 10 g/mu) was 3 (Grade 3: the growth control rate is greater than or equal to 40% and less than 60%). Moreover, the “Post-emergence herbicidal activity, P. oleracea (grade)” value in assay [3] (dosage 10 g/mu) is 5 (Grade 5: the growth control rate is greater than or equal to 85%). Besides, the “Post-emergence herbicidal activity, A. retroflexus (grade)” value in assay [4] (dosage 10 g/mu) is 5 (Grade 5: the growth control rate is greater than or equal to 85%). For the same compound, in assay [5] (dosage 10 g/mu), the “Post-emergence herbicidal activity, A. theophrasti (grade)” value was 5 (Grade 5: the growth control rate is greater than or equal to 85%). Also, the “Post-emergence herbicidal activity, Trifoliumre pensL. (grade)” value in assay [6] (dosage 10 g/mu) is 5 (Grade 5: the growth control rate is greater than or equal to 85%).
In the case of `O=C1C2=C(CCCC2)C(=O)N1c1cc(OCc2nnc(-c3ccccc3I)o2)c(Cl)cc1F` [Compound B7], the “Post-emergence herbicidal activity, E. crusgalli (grade)” value in assay [1] (dosage 2.5 g/mu) was 1 (Grade 1: the growth control rate is greater than or equal to 5% and less than 20%); in assay [1] (dosage 5 g/mu) it was 2 (Grade 2: the growth control rate is greater than or equal to 20% and less than 40%); in assay [1] (dosage 10 g/mu) it was 3 (Grade 3: the growth control rate is greater than or equal to 40% and less than 60%). Moreover, the “Post-emergence herbicidal activity, S. viridis (grade)” value is 2 (Grade 2: the growth control rate is greater than or equal to 20% and less than 40%) in assay [2] (dosage 2.5 g/mu); 3 (Grade 3: the growth control rate is greater than or equal to 40% and less than 60%) in assay [2] (dosage 5 g/mu); 4 (Grade 4: the growth control rate is greater than or equal to 60% and less than 85%) in assay [2] (dosage 10 g/mu). For the same compound, the “Post-emergence herbicidal activity, P. oleracea (grade)” value in assay [3] (dosage 2.5 g/mu), in assay [3] (dosage 5 g/mu) and in assay [3] (dosage 10 g/mu) was 5 (Grade 5: the growth control rate is greater than or equal to 85%) throughout. Moreover, the “Post-emergence herbicidal activity, A. retroflexus (grade)” value in assay [4] (dosage 2.5 g/mu), in assay [4] (dosage 5 g/mu) and in assay [4] (dosage 10 g/mu) was 5 (Grade 5: the growth control rate is greater than or equal to 85%) each time. Besides, the “Post-emergence herbicidal activity, A. theophrasti (grade)” value in assay [5] (dosage 2.5 g/mu), in assay [5] (dosage 5 g/mu) and in assay [5] (dosage 10 g/mu) was 5 (Grade 5: the growth control rate is greater than or equal to 85%) in each case. The “Post-emergence herbicidal activity, Trifoliumre pensL. (grade)” value in assay [6] (dosage 2.5 g/mu), in assay [6] (dosage 5 g/mu) and in assay [6] (dosage 10 g/mu) was 5 (Grade 5: the growth control rate is greater than or equal to 85%) each time.
`O=C1C2=C(CCCC2)C(=O)N1c1cc(OCc2nc(-c3ccc(Cl)cc3)no2)c(Cl)cc1F` [Compound A5]: the “Post-emergence herbicidal activity, E. crusgalli (grade)” value in assay [1] (dosage 2.5 g/mu) was 1 (Grade 1: the growth control rate is greater than or equal to 5% and less than 20%); in assay [1] (dosage 5 g/mu), 2 (Grade 2: the growth control rate is greater than or equal to 20% and less than 40%); in assay [1] (dosage 10 g/mu) it was 3 (Grade 3: the growth control rate is greater than or equal to 40% and less than 60%). Moreover, the “Post-emergence herbicidal activity, S. viridis (grade)” value in assay [2] (dosage 2.5 g/mu) is 2 (Grade 2: the growth control rate is greater than or equal to 20% and less than 40%); in assay [2] (dosage 5 g/mu), 3 (Grade 3: the growth control rate is greater than or equal to 40% and less than 60%); in assay [2] (dosage 10 g/mu), 4 (Grade 4: the growth control rate is greater than or equal to 60% and less than 85%). Besides, the “Post-emergence herbicidal activity, P. oleracea (grade)” value in assay [3] (dosage 2.5 g/mu), in assay [3] (dosage 5 g/mu) and in assay [3] (dosage 10 g/mu) was 5 (Grade 5: the growth control rate is greater than or equal to 85%) throughout. Also, the “Post-emergence herbicidal activity, A. retroflexus (grade)” value in assay [4] (dosage 2.5 g/mu), in assay [4] (dosage 5 g/mu) and in assay [4] (dosage 10 g/mu) was 5 (Grade 5: the growth control rate is greater than or equal to 85%) throughout. The “Post-emergence herbicidal activity, A. theophrasti (grade)” value in assay [5] (dosage 2.5 g/mu), in assay [5] (dosage 5 g/mu) and in assay [5] (dosage 10 g/mu) was 5 (Grade 5: the growth control rate is greater than or equal to 85%) each time. The “Post-emergence herbicidal activity, Trifoliumre pensL. (grade)” value in assay [6] (dosage 2.5 g/mu), in assay [6] (dosage 5 g/mu) and in assay [6] (dosage 10 g/mu) was 5 (Grade 5: the growth control rate is greater than or equal to 85%) throughout.
`O=C1C2=C(CCCC2)C(=O)N1c1cc(OCc2nc(-c3ccc(I)cc3)no2)c(Cl)cc1F` [Compound A27]: the “Post-emergence herbicidal activity, E. crusgalli (grade)” value is 1 (Grade 1: the growth control rate is greater than or equal to 5% and less than 20%) in assay [1] (dosage 2.5 g/mu); 2 (Grade 2: the growth control rate is greater than or equal to 20% and less than 40%) in assay [1] (dosage 5 g/mu); 3 (Grade 3: the growth control rate is greater than or equal to 40% and less than 60%) in assay [1] (dosage 10 g/mu). Besides, the “Post-emergence herbicidal activity, S. viridis (grade)” value in assay [2] (dosage 2.5 g/mu) was 2 (Grade 2: the growth control rate is greater than or equal to 20% and less than 40%); in assay [2] (dosage 5 g/mu), 3 (Grade 3: the growth control rate is greater than or equal to 40% and less than 60%); in assay [2] (dosage 10 g/mu), 4 (Grade 4: the growth control rate is greater than or equal to 60% and less than 85%). For the same compound, the “Post-emergence herbicidal activity, P. oleracea (grade)” value in assay [3] (dosage 2.5 g/mu), in assay [3] (dosage 5 g/mu) and in assay [3] (dosage 10 g/mu) was 5 (Grade 5: the growth control rate is greater than or equal to 85%) in each case. In addition, the “Post-emergence herbicidal activity, A. retroflexus (grade)” value in assay [4] (dosage 2.5 g/mu), in assay [4] (dosage 5 g/mu) and in assay [4] (dosage 10 g/mu) was 5 (Grade 5: the growth control rate is greater than or equal to 85%) throughout. Moreover, the “Post-emergence herbicidal activity, A. theophrasti (grade)” value in assay [5] (dosage 2.5 g/mu), in assay [5] (dosage 5 g/mu) and in assay [5] (dosage 10 g/mu) was 5 (Grade 5: the growth control rate is greater than or equal to 85%) throughout. Moreover, the “Post-emergence herbicidal activity, Trifoliumre pensL. (grade)” value in assay [6] (dosage 2.5 g/mu), in assay [6] (dosage 5 g/mu) and in assay [6] (dosage 10 g/mu) was 5 (Grade 5: the growth control rate is greater than or equal to 85%) each time.

Source of the values: patent US20240300932A1, “N-PHENYLIMINE DERIVATIVE AND PREPARATION METHOD AND USE THEREOF” (Guizhou University, priority 2023, published 2024).
